Reference: US11566062B2, “Methods for modulating protein mannosylation profiles using maduramycin, narasin, or salinomycin” (ARES TRADING S.A., priority 2017, dated 2023)
“Also recorded” adds a separate entry of the source.

Columns and labels:
Type in all cases: cell-based, Chinese hamster
mAb1 cells [1] = experiment: Toxicity of the polyether ionophores: viable cell density (ViCell) in fed-batch SpinTubes culture; conditions: all concentrations tested (100, 250, 500 and 1000 nM; as low as 100 nM), vs control
Description: (§1) Cells expressing mAb1 and mAb2 were inoculated at 0.2×10^6 cells per millilitre (mL).
(§2) All assays were performed in fed-batch culture. A serum-free chemically defined culture medium was used. It was used as it is, or it was supplemented with polyether ionophore compounds (maduramycin, narasin, salinomycin and lasalocid were all purchased from Sigma-Aldrich) at the desired concentrations. The culture medium was fed, on a regular basis, with a chemically defined feed medium, as well as with glucose in order to keep said glucose level in the range of >0 to about 8 g/L (feeds were done at days 3, 5, 7, 10 and additional glucose feed at day 12).
For example 1, cultures were performed in SpinTubes® with a working volume of 30 mL. They were incubated at 36.5° C., 5% de CO2, 80% humidity and shaken at 320 rpm. Salinomycin, narasin and maduramycin were tested at 100, 250, 500 and 1000 nM.
(§3) Each of the fed-batch culture lasted 14 days.
(§4) Viable cell density and viability were measured with the ViCell® (Beckmann Coulter). Antibody titers were measured with PA-HPLC.
The cells were cultivated and the results analysed as disclosed in the material and method section. It is noted that the controls (or control conditions) according to the present invention correspond to cells grown without any polyether ionophores.

mAb1 cells [2] = experiment: Viable cell density and viability (ViCell) of mAb1 cells, fed-batch Ambr15; conditions: 5 and 10 nM added at the start of the culture
Description: as §1, §2
(§5) For examples 2 and 3, cultures were performed in Ambr®15 with a working volume of 14 mL (36.5° C., Dissolved Oxygen 40%, 0.1 ml/min N2, pH range: 6.75-7.15, 800 rpm). A temperature shift was performed at day 6 for the cells expressing mAb1. Further conditions are mentioned in Table 2.
as §3, §4
(§6) The cells were cultivated and the results analysed as disclosed in the material and method section.

mAb1 cells [3] = experiment: Antibody titre (PA-HPLC) of mAb1 cells, fed-batch Ambr15; conditions: 5 and 10 nM added at the start of the culture
Description: as §1, §2, §5, §3, §4, §6

[4] = tested on: mannosylation level of mAb1; experiment: Glycosylation (mannosylation) profile of mAb1 by 2AB-UPLC; set-up: level of ManS species / level of Man6 species (M6) / level of Man7 species / level of Man8 species / level of Man9 species: dose or concentration left out as unconfirmed; conditions: for total mannosylation: 10 nM added at the start; for level of Man6 species (M6) / level of Man7 species / level of Man8 species / level of Man9 species / level of ManS species: day 12, added at the start of the culture
Description: as §2, §5
(§7) Glycosylation profiles were established either by Ultra Performance Liquid Chromatography-2-amino-benzamide labelling technique (2AB-UPLC; mAb1) or by mass spectroscopy (MS; mAB2). Groups of glycans were defined in Table 1.
as §6

mAb2 cells [5] = experiment: Viable cell density (ViCell) of mAb2 cells, fed-batch Ambr15
Description: as §1, §2, §5, §3, §4, §6

mAb2 cells [6] = experiment: Titre (PA-HPLC) of mAb2 cells, fed-batch Ambr15
Description: as §1, §2, §5, §3, §4, §6

[7] = tested on: mannosylation level of mAb2; experiment: Glycosylation (mannosylation) profile of mAb2 by mass spectroscopy; conditions: for total mannosylation: 10 nM added at the start; for impact on afucoslyated glycoforms: data non shown; for level of Man5 species / level of Man6 species (M6) / level of Man7 species: day 10, 10 nM added at the start of the culture; for level of fucosylated glycoforms: not shown
Description: as §2, §5, §7, §6

[8] = 10 nM added at the start of the culture

## CC[C@@H](C(=O)O)[C@@H]1O[C@@H]([C@@H](C)[C@H](O)[C@H](C)C(=O)[C@H](CC)[C@H]2O[C@]3(C=C[C@@H](O)[C@]4(CC[C@@](C)([C@H]5CC[C@](O)(CC)[C@H](C)O5)O4)O3)[C@H](C)C[C@@H]2C)[C@@H](C)C[C@@H]1C [narasin, Narasin]
mAb1 cells [1]
  VCD decreased by a factor: 3
mAb1 cells [2]
  cell growth (VCD) at the end of culture compared to the control: −15%
mAb1 cells [3]
  protein titre at the end of culture compared to the control: −15%
[4]; after 12 days of culture
  total mannosylation: about 43%
[4]; after 14 days of culture
  total mannosylation: 38.9%
[4]
  level of Man6 species (M6): about 6.5%
  level of Man7 species: about 4.5%
  level of Man8 species: about 3.5%
  level of Man9 species: about 0.5%
  level of ManS species: about 32%
mAb2 cells [5]; both concentrations (5 and 10 nM) added at the start of the culture
  impact on cell growth: negative impact on cell growth
mAb2 cells [6]; 5 nM added at the start of the culture
  titre compared to the control: +10%
mAb2 cells [6]; [8]
  titre compared to the control: +15%
[7]; after 10 days of culture
  total mannosylation: about 12.0%
[7]; after 12 days of culture
  total mannosylation: 18.0%
[7]
  impact on afucoslyated glycoforms: without deeply impacting afucoslyated glycoforms
  level of Man5 species: about 16.5%
  level of Man6 species (M6): about 3%
  level of Man7 species: about 1.0%
  level of fucosylated glycoforms: decreased

## CC[C@@H](C(=O)[C@@H](C)[C@@H](O)[C@H](C)[C@@H]1O[C@@H]([C@@H](CC)C(=O)O)CC[C@@H]1C)[C@H]1O[C@]2(C=C[C@@H](O)[C@]3(CC[C@@](C)([C@H]4CC[C@](O)(CC)[C@H](C)O4)O3)O2)[C@H](C)C[C@@H]1C [salinomycin, Salinomycin]
mAb1 cells [1]
  VCD decreased by a factor: 3
mAb1 cells [2]
  cell growth (VCD) at the end of culture compared to the control: −13%
mAb1 cells [3]
  protein titre at the end of culture compared to the control: −15%
[4]
  level of Man6 species (M6): about 3.2%
  level of Man7 species: about 1.5%
  level of Man8 species: about 0.3%
  level of Man9 species: about 0.45%
  level of ManS species: about 27%
mAb2 cells [5]; [8]
  cell growth compared to the control at the end of culture: not more than 10%
[7]
  impact on afucoslyated glycoforms: without deeply impacting afucoslyated glycoforms
  level of Man5 species: about 15%
  level of Man6 species (M6): about 2.5%
  level of Man7 species: about 0.65%
  level of fucosylated glycoforms: decreased

## Lasalocid
[4]; concentration not given
  effect on mannosylation: no effect on mannosylation; also recorded: no impact on mannosylation
